Experimental data from ChEMBL document CHEMBL5390298, “Nanomolar Benzothiazole-Based Inhibitors of 17β-HSD10 with Cellular Bioactivity” (ACS Med Chem Lett, 2023).

How the values were obtained:
[1] = target: T1, 3-hydroxyacyl-CoA dehydrogenase type-2 (Homo sapiens, UniProt Q99714); test: Inhibition of recombinant 17beta-HSD10 (unknown origin) using ALLOP as substrate and NAD+ as cofactor preincubated for 5 mins followed by substrate addition and measured after 20 mins by fluorometric assay
T1 sequence (Q99714 whole entry): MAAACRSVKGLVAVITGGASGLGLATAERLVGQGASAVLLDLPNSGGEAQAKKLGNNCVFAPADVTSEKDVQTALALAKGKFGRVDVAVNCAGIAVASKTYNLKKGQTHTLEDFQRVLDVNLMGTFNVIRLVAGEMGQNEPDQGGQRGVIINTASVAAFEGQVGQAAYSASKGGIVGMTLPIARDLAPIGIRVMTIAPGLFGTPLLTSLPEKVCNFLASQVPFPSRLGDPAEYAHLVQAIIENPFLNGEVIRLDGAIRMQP

[2] = target: T1, 3-hydroxyacyl-CoA dehydrogenase type-2; test: Mixed type inhibition of recombinant 17beta-HSD10 (unknown origin) using E2 as substrate and NAD+ as cofactor preincubated for 5 mins followed by substrate addition and measured after 20 mins by fluorometric assay
HEK293 = test: Cytotoxicity against HEK293 cells assessed as cell damage at 50 uM incubated for 48 hrs by fluorometric method; format: toxicity, cell-based; conditions: human, hek293, 48 h
[3] = target: T1, 3-hydroxyacyl-CoA dehydrogenase type-2; test: Inhibition of recombinant 17beta-HSD10 (unknown origin) using E2 as substrate and NAD+ as cofactor preincubated for 5 mins followed by substrate addition and measured after 20 mins by fluorometric assay

| SMILES | Activity (HEK293) | also measured |
| --- | --- | --- |
| NC(=O)Nc1ccc2nc(NC(=O)Nc3ccc(O)c(Cl)c3)sc2c1 | Non-Toxic | IC50 [1]: 330 nM; IC50 [2]: 270 nM |
| CC(=O)Nc1ccc2nc(NCCc3ccc(O)c(Cl)c3)sc2c1 | Non-Toxic | – |
| O=C(Nc1ccc(O)c(Cl)c1)Nc1nc2ccc(-c3nnn[nH]3)cc2s1 | Non-Toxic | IC50 [1]: 95 nM; IC50 [2]: 410 nM |
| O=C(O)c1ccc2nc(NCCc3ccc(O)c(Cl)c3)sc2c1 | Non-Toxic | – |
| CC(=O)Nc1ccc2nc(NC(=O)Nc3ccc(O)c(C(F)(F)F)c3)sc2c1 | Non-Toxic | – |
| CS(=O)(=O)Nc1ccc2nc(NC(=O)Nc3ccc(O)c(Cl)c3)sc2c1 | Non-Toxic | – |
| CC(=O)Nc1ccc2nc(NCc3ccc(O)c(C(F)(F)F)c3)sc2c1 | Non-Toxic | – |
| O=C(O)c1ccc2nc(NCc3ccc(O)c(Cl)c3)sc2c1 | Non-Toxic | – |
| CC(=O)Nc1ccc2nc(NCc3ccc(O)c(Cl)c3)sc2c1 | Non-Toxic | – |
| O=C(Nc1ccc(O)c(Cl)c1)Nc1nc2ccc(C(=O)O)cc2s1 | – | IC50 [3]: 1810 nM |
| O=C(Nc1ccc(O)c(Cl)c1)Nc1nc2cc(C(=O)O)ccc2s1 | Non-Toxic | – |
| CC(=O)Nc1ccc2nc(N(CCc3ccc(O)c(Cl)c3)C(C)=O)sc2c1 | Non-Toxic | – |
| NS(=O)(=O)c1ccc2nc(NC(=O)Nc3ccc(O)c(Cl)c3)sc2c1 | Non-Toxic | – |
| O=C(O)c1ccc2nc(NC(=O)c3ccc(O)c(Cl)c3)sc2c1 | Non-Toxic | – |
| O=C(Nc1ccc(O)c(C(F)(F)F)c1)Nc1nc2ccc(C(=O)O)cc2s1 | Non-Toxic | IC50 [1]: 250 nM; IC50 [2]: 340 nM |
| CC(=O)Nc1ccc2nc(NC(=O)Nc3ccc(O)c(Cl)c3)sc2c1 | – | IC50 [3]: 1150 nM |
